Laboratory results published in article PMC9151520 (Archives of Toxicology, 2022).
Several values for one entry are separate records, joined by “and”; a condition that tells them apart may be missing. Equal entries are not always repeated. Where two headings read alike, the source gives them in different places.

Assays:
[1] = tested on: p53 signaling (p53RE-bla HCT-116 cells); experiment: cells; assay type: cell-based; settings: for EC50 / Emax: Homo sapiens
[2] = tested on: p53 signaling (p53RE-bla HCT-116 cells)
[3] = tested on: p53 signaling (p53RE-bla HCT-116 cells); remark: listed apart in the source
p53RE-bla HCT-116 cells [4] = tested on: p53RE-bla HCT-116 cells
p53RE-bla HCT-116 cells [5] = experiment: cells; settings: Homo sapiens
[6] = HCT-116, read-out: p53 activation EC50, cherry pick confirmation
[7] = HCT-116, read-out: p53 activation EC50, primary screening
[8] = HCT-116, read-out: p53 activation efficacy, cherry pick confirmation
[9] = HCT-116, read-out: p53 activation efficacy, primary screening
[10] = HCT-116, read-out: Viability EC50, cherry pick confirmation
[11] = HCT-116, read-out: EC50, p53 activation, primary screening
[12] = HCT-116, read-out: Efficacy, p53 activation, primary screening
[13] = HCT-116, read-out: EC50, viability, primary screening
[14] = read-out: Viability EC50, primary screening
[15] = HCT-116, read-out: Viability EC50, primary screening
[16] = HCT-116, read-out: EC50, p53 activation, cherry pick confirmation
[17] = HCT-116, read-out: Efficacy, p53 activation, cherry pick confirmation
[18] = HCT-116, read-out: EC50, viability, cherry pick confirmation
[19] = read-out: EC50, viability, primary screening

Row | Structure (SMILES) | EC50 [1, 7] | Emax [1, 9] | p53 activation EC50, cherry pick confirmation [2] | p53 activation EC50, primary screening [2] | p53 activation efficacy, cherry pick confirmation [2] | p53 activation efficacy, primary screening [2] | p53 activation EC50, cherry pick confirmation [3] | p53 activation EC50, primary screening [3] | p53 activation efficacy, cherry pick confirmation [3] | p53 activation efficacy, primary screening [3] | Viability EC50, cherry pick confirmation (p53RE-bla HCT-116 cells [4]) | Viability EC50, primary screening (p53RE-bla HCT-116 cells [4]) | EC50 [1, 11] | Emax [1, 12] | EC50, p53 activation, cherry pick confirmation [2] | Efficacy, p53 activation, cherry pick confirmation [2] | EC50, p53 activation, cherry pick confirmation [3] | EC50, p53 activation, primary screening [3] | Efficacy, p53 activation, cherry pick confirmation [3] | Efficacy, p53 activation, primary screening [3] | also measured
1 | O=Nc1ccc(Nc2ccccc2)cc1 [4-Nitrosodiphenylamine] | 47.6 µM | 61.2% | inactive | inactive | inactive | inactive | inactive | inactive | inactive | inactive | inactive | inactive |  |  |  |  |  |  |  |  | EC50 [1, 6]: 27.6 µM; Emax [1, 8]: 84.9%; Viability efficacy, primary screening (p53RE-bla HCT-116 cells [4]): inactive; EC50 (p53RE-bla HCT-116 cells [4]; read-out: Viability EC50, cherry pick confirmation): 36.3 µM; EC50 (p53RE-bla HCT-116 cells [5]; [10]): 40.8 µM
2 | CC(C)(C)[C@H]1CC[C@H](CC2=C(O)C(=O)c3ccccc3C2=O)CC1 [Buparvaquone] | 1.41 µM | 33.8% | inactive | inactive | inactive | inactive | inactive | inactive | inactive | inactive | inactive | inactive |  |  |  |  |  |  |  |  | p53 activation EC50, cherry pick confirmation [1]: inactive; p53 activation efficacy, cherry pick confirmation [1]: inactive; Viability efficacy, primary screening (p53RE-bla HCT-116 cells [4]): inactive; EC50 (p53RE-bla HCT-116 cells [5]; [10]): 1.99 µM
3 | Oc1c(I)cc(I)cc1I [2,4,6-Triiodophenol] |  |  |  |  |  |  |  |  |  |  |  |  | 20.7 µM | 27.1% | inactive | inactive | inactive | inactive | inactive | inactive | EC50, p53 activation, cherry pick confirmation [1]: inactive; Efficacy, p53 activation, cherry pick confirmation [1]: inactive; EC50, p53 activation, primary screening [2]: inactive; Efficacy, p53 activation, primary screening [2]: inactive; EC50, viability, cherry pick confirmation (p53RE-bla HCT-116 cells [4]): inactive; EC50, viability, primary screening (p53RE-bla HCT-116 cells [4]): inactive; EC50 (p53RE-bla HCT-116 cells [5]; [13]): 19 µM
4 | COc1cc(/C=C/C(=O)CC(=O)/C=C/c2ccc(O)c(OC)c2)ccc1O [Curcumin] | 15.4 µM | 65.1% | inactive | inactive | inactive | inactive | inactive | inactive | inactive | inactive | inactive |  |  |  |  |  |  |  |  |  | p53 activation EC50, cherry pick confirmation [1]: inactive; p53 activation efficacy, cherry pick confirmation [1]: inactive; EC50 (p53RE-bla HCT-116 cells [4]; [14]): 38 µM and 46.9 µM; EC50 (p53RE-bla HCT-116 cells [5]; [10]): 16.3 µM; EC50 (p53RE-bla HCT-116 cells [5]; [15]): 31.7 µM
5 | Cc1nc(N)nc(N)c1-c1ccc(Cl)c(Cl)c1 [Methodichlorophen] |  |  |  |  |  |  |  |  |  |  |  |  | 5.92 µM | 42.9% | inactive | inactive | inactive | inactive | inactive | inactive | EC50 [1, 16]: 9.01 µM; Emax [1, 17]: 31.4%; EC50, p53 activation, primary screening [2]: inactive; Efficacy, p53 activation, primary screening [2]: inactive; EC50, viability, cherry pick confirmation (p53RE-bla HCT-116 cells [4]): inactive; EC50, viability, primary screening (p53RE-bla HCT-116 cells [4]): inactive; Efficacy, viability, primary screening (p53RE-bla HCT-116 cells [4]): inactive; EC50 (p53RE-bla HCT-116 cells [5]; [18]): 1.58 µM
6 | Oc1ccc(Cl)cc1Sc1cc(Cl)ccc1O [Fenticlor] | 34.2 µM | 52.2% | inactive | inactive | inactive | inactive | inactive | inactive | inactive | inactive |  | inactive |  |  |  |  |  |  |  |  | EC50 [1, 6]: 18.1 µM; Emax [1, 8]: 54.9%; EC50 (p53RE-bla HCT-116 cells [4]; [14]): 18.7 µM; EC50 (p53RE-bla HCT-116 cells [5]; [15]): 27.7 µM
7 | Oc1ccc(C(c2ccc(O)cc2)(C(F)(F)F)C(F)(F)F)cc1 [Bisphenol AF] |  |  |  |  |  |  |  |  |  |  |  |  | 28.9 µM | 33.6% | inactive | inactive | inactive | inactive | inactive | inactive | EC50 [1, 16]: 31.7 µM; Emax [1, 17]: 55.4%; EC50, p53 activation, primary screening [2]: inactive; Efficacy, p53 activation, primary screening [2]: inactive; EC50, viability, cherry pick confirmation (p53RE-bla HCT-116 cells [4]): inactive; EC50, viability, primary screening (p53RE-bla HCT-116 cells [4]): inactive; Efficacy, viability, cherry pick confirmation (p53RE-bla HCT-116 cells [4]): inactive; EC50 (p53RE-bla HCT-116 cells [4]; [19]): 47.6 µM; EC50 (p53RE-bla HCT-116 cells [5]; [13]): 47.4 µM
8 | CO[C@@]12[C@H](COC(N)=O)C3=C(C(=O)C(C)=C(N)C3=O)N1C[C@@H]1N[C@@H]12 [Mitomycin C] |  |  |  |  |  |  |  |  |  |  |  |  |  |  | inactive | inactive | inactive | inactive | inactive | inactive | EC50 [1, 16]: 2.12 µM; Emax [1, 17]: 134%; EC50, viability, cherry pick confirmation (p53RE-bla HCT-116 cells [4]): inactive; EC50, viability, primary screening (p53RE-bla HCT-116 cells [4]): inactive; Efficacy, viability, primary screening (p53RE-bla HCT-116 cells [4]): inactive; EC50 (p53RE-bla HCT-116 cells [5]; [18]): 17.8 µM
9 | CC(C)C[C@H](NC(=O)[C@H](CCc1ccccc1)NC(=O)CN1CCOCC1)C(=O)N[C@@H](Cc1ccccc1)C(=O)N[C@@H](CC(C)C)C(=O)[C@@]1(C)CO1 [Carfilzomib] | 0.142 µM | 82% | inactive | inactive | inactive | inactive | inactive | inactive | inactive | inactive | inactive | inactive |  |  |  |  |  |  |  |  | EC50 [1, 6]: 0.0597 µM; Emax [1, 8]: 111%; EC50 (p53RE-bla HCT-116 cells [5]; [15]): 0.75 µM
10 | CC1=CC(=O)c2ccccc2C1=O [Menadione] |  |  |  |  |  |  |  |  |  |  |  |  | 40.3 µM | 31.2% | inactive | inactive | inactive | inactive | inactive | inactive | EC50 [1, 16]: 16.2 µM; Emax [1, 17]: 33.9%; EC50, p53 activation, primary screening [2]: inactive; Efficacy, p53 activation, primary screening [2]: inactive; EC50 (p53RE-bla HCT-116 cells [4]; read-out: EC50, viability, cherry pick confirmation): 42.4 µM; EC50 (p53RE-bla HCT-116 cells [4]; [19]): 42.4 µM and 46.3 µM; EC50 (p53RE-bla HCT-116 cells [5]; [18]): 36.3 µM; EC50 (p53RE-bla HCT-116 cells [5]; [13]): 51.3 µM
